ChEMBL document CHEMBL3045085, “Structureactivity relationship study of growth inhibitory 2-styrylchromones against carcinoma cells” (2013)

What was measured:
Format in all cases: functional
[1] = Growth inhibition of Homo sapiens (human) H460 cells after 48 hr by MTT assay; details: NCI-H460, 48 h
[2] = Growth inhibition of Homo sapiens (human) SKHep cells after 48 hr by MTT assay
AGS = assay: Growth inhibition of Homo sapiens (human) AGS cells after 48 hr by MTT assay
HeLa = assay: Growth inhibition of Homo sapiens (human) HeLa cells after 48 hr by MTT assay
OVCAR = assay: Growth inhibition of Homo sapiens (human) OVCAR cells after 48 hr by MTT assay
SW-620 = assay: Growth inhibition of Homo sapiens (human) SW620 cells after 48 hr by MTT assay; details: SW-620, 48 h
PC-3 = assay: Growth inhibition of Homo sapiens (human) PC3 cells after 48 hr by MTT assay; details: PC-3, 48 h

GI50 (AGS) [nM]	GI50 (HeLa) [nM]	GI50 (OVCAR) [nM]	GI50 (SW-620) [nM]	GI50 (PC-3) [nM]	Structure (SMILES)	GI50 [1] [nM]	GI50 [2] [nM]
> 40000	14000	> 40000			O=c1cc(/C=C/c2ccc3c(c2)OCO3)oc2ccccc12	> 40000	> 40000
> 40000	25000	21000			O=c1cc(/C=C/c2ccccc2)oc2ccccc12	> 40000	> 40000
20	330	950	30	1760	COc1cccc2c1C(=O)c1c(O)c3c(c(O)c1C2=O)C[C@@](O)(C(=O)CO)C[C@@H]3O[C@H]1C[C@H](N)[C@H](O)[C@H](C)O1 [DOXORUBICIN]	110	90
